Results on four compounds are retold here after patent publication US5814627A, “3, 5-disubstituted and 3, 4, 5-trisubstituted 2-isoxazolines and isoxazoles, process for their preparation and their use as pharmaceuticals” (Hoechst Aktienegesellschaft, priority 1994, dated 1998).

The subject of assay [1] is IL-1β release from mononuclear cells. Kind of assay: Test 4: cytokine release from LPS-stimulated mononuclear cells, IL-1β. In kind it is cell-based. The following applies: Homo sapiens, 10 μM, read-out: Test 4 residual activity (IL-1β release), percent of control. Here is the method: (§1) Test 4. Stimulation of the cytokine release
(§2) Isolation of mononuclear cells from human blood
(§3) 10 ml of human blood, stabilized with 1 ml of 3.8% sodium citrate solution, were diluted with 10 ml of PM16 (Serva, Heidelberg) and underlaid with 15 ml of Lymphoprep (Dr. Molter GmbH, Heidelberg). The samples were centrifuged, at room temperature for 40 minutes, at 400×g (1600 rpm, Minifuge 2, Heraeus, Osterode). The mononuclear cells are visible as a white ring at the Lymphoprep/plasma interface. This ring was carefully removed with a syringe, diluted with an equal volume of PM16, and centrifuged for 10 minutes at 400×g. The sediment was washed with approximately 10 ml of RPMI1640 (+300 mg/l L-glutamine, Gibco, Eggenstein) (Wallis, 1986). After the cells had been resuspended in approximately 1 ml of RPMI1640 (+300 mg/l L-glutamine+25 mM HEPES+100 μg/ml streptomycin+100 μg/ml penicillin), the cell density was determined using a Coulter Counter JT (Coulter Diagnostics) and adjusted to 5*10^6 /ml. Typically, the cells are composed of 90% lymphocytes and 10% monocytes.
(§4) 230 μl of mononuclear cells were incubated, at 37° C.; 5% CO2 for 20-22 hours (5 hours in the case of IL-6), with 10 μl of test substance (10 μM in DMSO/water, 1/10) and 10 μl of lipopolysaccharide (LPS; 500 μg dissolved in 1 ml of DMSO and diluted 1/10 with water prior to beginning the test; from Salmonella abortus equi, Sigma, Deisenhofen). The samples were cooled down to 0° C. in an ice bath and centrifuged in a Sigma centrifuge (2 minutes; 2000 rpm). Aliquots of the supernatant are measured with an ELISA (Biermann, Bad Nauheim). The abbreviation IL stands for interleukin and TNF for tumor necrosis factor alpha.
(§5) The values in the table show the concentration of the test substance which was employed in μM and, besides this, the residual activity measured in percent based on the control, which was set to be 100%. The interleukin is additionally indicated in test 4.

Assay [2] deals with IL-6 release from mononuclear cells. In words: Test 4: cytokine release from LPS-stimulated mononuclear cells, IL-6. The class given is cell-based. The following applies: Homo sapiens, 5 hours incubation, read-out: Test 4 residual activity (IL-6 release), percent of control. Here is the method:
as §1, §2
as §3, with “The sediment was washed with approximately 10 ml of RPMI1640 (+300 mg/l L-glutamine, Gibco, Eggenstein) (Wallis, 1986).” left out, “Typically, the cells are composed of 90% lymphocytes and 10% monocytes.” left out
230 μl of mononuclear cells were incubated, at 37° C.; 5% CO2 for 20-22 hours (5 hours in the case of IL-6), with 10 μl of test substance (10 μM in DMSO/water, 1/10) and 10 μl of lipopolysaccharide (LPS; 500 μg dissolved in 1 ml of DMSO and diluted 1/10 with water prior to beginning the test; from Salmonella abortus equi, Sigma, Deisenhofen). […] Aliquots of the supernatant are measured with an ELISA (Biermann, Bad Nauheim). […]

In assay [3] the test system is IL-1 release from mononuclear cells. Kind of assay: Test 4: cytokine release from LPS-stimulated mononuclear cells, IL-1. In kind it is cell-based. The conditions noted are these: Homo sapiens; IL-1; 10 μM; read-out: Test 4 residual activity (IL-1 release), percent of control. Here is the method:
as §1, §2, §3, §4, §5

A further assay relates to adjuvant/arthritis model. Kind of assay: Test 6: antiarthritic effect in the adjuvant/arthritis model. The conditions noted are these: Rattus norvegicus, po, 408 h, 50 mg/kg orally, daily for 17 days; rat; read-out: Test 6 Paw volume (% inhibition). In kind it is in vivo, rat (Wistar-Lewis).

Each structure is given as a SMILES string.

In the case of `CC(C)(C)c1cc(C2CC(CCC(=O)O)=NO2)cc(C(C)(C)C)c1O` (centres unmarked) [Example 63, 5-(4-Hydroxy-3,5-di-tert-butylphenyl)-2-isoxazolin-3-ylpropionic acid], in assay [1], the activity at 10 µM is 77%.

As to `CC(C)(C)c1cc(C2=NOC(c3ccccn3)C2)cc(C(C)(C)C)c1O` (centres unmarked) [Example 9], the activity at 10 µM in assay [2] (10 μM) was 93%; in assay [3], 73%.

With `CC(O)c1cc(-c2cc(C(C)(C)C)c(O)c(C(C)(C)C)c2)no1` (centres unmarked) [Example 28], the inhibition in vivo at 50 mg/kg with adjuvant/arthritis model came to 74%.

Take `CC(C)(C)c1cc(-c2cc(CNS(=O)(=O)C(F)(F)F)on2)cc(C(C)(C)C)c1O` [Example 49, N-(3-(4-Hydroxy-3,5-di-tert-butylphenyl)isoxazol-5-ylmethyl)trifluoromethanesulfonamide]: the activity at 1 µM in assay [2] (1 μM) came out at 91%.
